Measurements published in US8951982B2, “Methods and compositions for the treatment of eye disorders with increased intraocular pressure” (Sylentis S.A.U., priority 2004, dated 2015).
d = 2'-deoxy (DNA)

test system: Normotensive New Zealand White rabbits; test: In vivo rabbit model of IOP (contact tonometer); conditions: figure legends (FIGS. 5-8), 256 μg dose of siRNA per administration
Description: Normotensive New Zealand White rabbits (males, 2-3 kg) were used in the in vivo assays. The animals were kept in individual cages with free access to food and water. Animals were submitted to artificial 12 hours light/darkness cycles to avoid uncontrolled circadian oscillations of IOP and all experiments were performed at the same time of day to control for any fluctuations in IOP due to circadian oscillations. Animal handling and treatment were carried out in accordance with the European Communities Council Directive (86/609/EEC) and the statement of the Association for Research in Vision and Ophthalmology on the Use of Animals in Ophthalmic and Vision Research. Each animal was used for only one experiment.
IOP measurements were done using a contact tonometer (TonoPen XL, Mentor, Norwell, Mass.) due to past success of measuring intraocular pressures within the range of 3 to 30 mm Hg in rabbits (Abrams et al., 1996, Invest Ophthalmol Vis Sci. 37:940-4). Measurements were performed by delicately applying the tonometer's sensor to the corneal surface of the animal. All measurements fell within the 3 to 30 mm Hg interval with the mean baseline value of intraocular pressure being 17.0±0.39 mm Hg for untreated animals (n=100). In order to avoid distress to the animal, rabbits were topically anesthetized (10 μl of oxibuprocaine/tetracaine, 0.4%/1%, in a saline solution (1/4 v:v)) prior to IOP measurement.
Commercially available drugs were typically administered to the animals by instilling a small volume (typically 40 μl) on the corneal surface. Contralateral eyes were treated with the vehicle alone and were used as controls in each experiment.
siRNA molecules or commercially available drugs were typically administered to the animals as follows. Doses of siRNA in saline solution (0.9% w/v) to a final volume of 40 μl were applied to the corneal surface of one eye each day during four consecutive days. The opposite eye was taken as a control and 40 μl of sterile saline (0.9% w/v) was instilled on it at the same time points. Commercially available drugs were typically administered to the animals by instilling a small volume (typically 40 μl) on the corneal surface. Contralateral eyes were treated with the vehicle alone and were used as controls in each experiment. The IOP was measured before each application and at 2 h, 4 h and 6 h following the instillation for 10 days.
The data are summarized in Table 2 where values represent the mean of the normalized maximum percentage of IOP reduction after siRNA treatment and their standard deviations. The decrease in IOP was statistically significant for all the treated targets.

Row | Substance | decrease of IOP over a saline control [%]
1 | SEQ ID NO: 5: siRNA targeting carbonic anhydrase IV (CA4) (CAUCGUCACCACCAAGGCA; two-thymidine 3' overhang, other chemistry not given here; listed as Homo sapiens) | 16
2 | SEQ ID NO: 105: siRNA targeting adrenergic, beta-1-, receptor (ADRB1) (CGACCCCAAGUGCUGCGAC; 3' dTdT, sugars by position and backbone not given here; listed as Homo sapiens) | 25
3 | SEQ ID NO: 139: siRNA targeting human adrenergic, beta-2-, receptor (ADRB2) (CAUUGUGCAUGUGAUCCAG; listed as RNA, chemistry not given here; listed as Homo sapiens) | 22
4 | SEQ ID NO: 189: siRNA targeting human acetylcholinesterase (ACHE) (CCGUGAGCUGAGCGAGGAC; two-thymidine 3' overhang, other chemistry not given here; listed as Homo sapiens) | 25

same assay, conditions: mean normalized maximum percentage of IOP reduction ± SD, topical to corneal surface, once daily for four consecutive days

Row | Substance | IOP Reduction (% of saline control) [%]
5 | SEQ ID NO: 5: siRNA targeting carbonic anhydrase IV (CA4) (CAUCGUCACCACCAAGGCA; two-thymidine 3' overhang, other chemistry not given here; listed as Homo sapiens) | 14.47 ± 5.00
6 | SEQ ID NO: 105: siRNA targeting adrenergic, beta-1-, receptor (ADRB1) (CGACCCCAAGUGCUGCGAC; 3' dTdT, sugars by position and backbone not given here; listed as Homo sapiens) | 28.04 ± 2.98
7 | SEQ ID NO: 522: siRNA targeting carbonic anhydrase XII (CA12) (AUGAUCAACAACUUCCGGC; two-thymidine 3' overhang, other chemistry not given here; listed as Homo sapiens) | 24.30 ± 1.29
8 | SEQ ID NO: 774: siRNA targeting AGTR2 (angiotensin II receptor, type 2) (GCAUCUUAUAUAGUUCCCC; two-thymidine 3' overhang, other chemistry not given here; listed as Homo sapiens) | 11.22 ± 1.53
9 | SEQ ID NO: 1399: siRNA targeting ATP1A1 (ATPase, Na+/K+ transporting, alpha 1 polypeptide) (CUGGAACUCUGACUCAGAA; 3' dTdT, sugars by position and backbone not given here; listed as Homo sapiens) | 18.13 ± 1.39
10 | SEQ ID NO: 1820: siRNA targeting ATP1B2 (ATPase, Na+/K+ transporting, beta 2 polypeptide) (GUUCCACGUGAACUACACA; 3' dTdT, sugars by position and backbone not given here; duplex siRNA; listed as Homo sapiens) | 16.32 ± 0.91
11 | SEQ ID NO: 1838: siRNA targeting rabbit carbonic anhydrase II; rabbit homolog of SEQ ID NO: 73 (GAUUGGCAGUGCUACACCA; 3' dTdT, sugars by position and backbone not given here; duplex siRNA; listed as Oryctolagus sp.) | 24.84 ± 3.41
12 | SEQ ID NO: 1841: siRNA targeting rabbit adrenergic, beta-2-, receptor; rabbit homolog of SEQ ID NO: 139 (CAUCGUGCACGUGAUCCAG; 3' dTdT, sugars by position and backbone not given here; duplex siRNA; listed as Oryctolagus sp.) | 21.18 ± 1.88
13 | SEQ ID NO: 1846: siRNA targeting rabbit acetylcholinesterase; rabbit homolog of SEQ ID NO: 189 (CCGUGAGCUGAGUGAGGAC; two-thymidine 3' overhang, other chemistry not given here; listed as Oryctolagus sp.) | 25.25 ± 2.70
14 | SEQ ID NO: 1848: siRNA targeting rabbit selectin E (SELE); rabbit homolog of SEQ ID NO: 262 (GCCAACUUGUAAAGCUGUG; 3' dTdT, sugars by position and backbone not given here; duplex siRNA; listed as Oryctolagus sp.) | 21.80 ± 1.74
